From the NIST ThermoML archive (doi:10.1016/j.fluid.2018.09.026)
“And” between values parts separate entries of the source, which are not always exact repeats. Equal entries are not always repeated.

Conditions: Liquid; for mass density: Vibrating tube method; for viscosity: Vibrating wire viscometry

OCCOCCOCCO [triethylene glycol]
Conditions | mass density [kg/m3] | viscosity
283.15 K, 100 kPa | 1130.8 | –
283.15 K, 660 kPa | 1131 | –
283.15 K, 1150 kPa | 1131.2 | –
283.15 K, 1570 kPa | 1131.4 | –
283.15 K, 2090 kPa | 1131.6 | –
283.15 K, 3090 kPa | 1132 | –
283.15 K, 5060 kPa | 1132.9 | –
283.15 K, 6940 kPa | 1133.6 | –
283.15 K, 10020 kPa | 1134.9 | –
283.15 K, 14850 kPa | 1136.9 | –
283.15 K, 19830 kPa | 1138.9 | –
283.15 K, 24700 kPa | 1140.8 | –
283.15 K, 29600 kPa | 1142.7 | –
283.15 K, 34510 kPa | 1144.6 | –
283.15 K, 39360 kPa | 1146.4 | –
283.15 K, 44290 kPa | 1148.2 | –
283.15 K, 49180 kPa | 1150 | –
283.15 K, 54110 kPa | 1151.7 | –
283.15 K, 58970 kPa | 1153.4 | –
283.15 K, 63860 kPa | 1155.1 | –
283.15 K, 68790 kPa | 1156.8 | –
293.15 K, 100 kPa | 1122.9 | –
293.15 K, 640 kPa | 1123.1 | –
293.15 K, 1090 kPa | 1123.4 | –
293.15 K, 1600 kPa | 1123.6 | –
293.15 K, 2140 kPa | 1123.8 | –
293.15 K, 3080 kPa | 1124.2 | –
293.15 K, 5030 kPa | 1125.1 | –
293.15 K, 7010 kPa | 1125.9 | –
293.15 K, 9950 kPa | 1127.2 | –
293.15 K, 14850 kPa | 1129.3 | –
293.15 K, 19770 kPa | 1131.3 | –
293.15 K, 24660 kPa | 1133.3 | –
293.15 K, 29510 kPa | 1135.2 | –
293.15 K, 34610 kPa | 1137.2 | –
293.15 K, 39370 kPa | 1139.1 | –
293.15 K, 44320 kPa | 1141 | –
293.15 K, 49130 kPa | 1142.8 | –
293.15 K, 54050 kPa | 1144.6 | –
293.15 K, 59060 kPa | 1146.4 | –
293.15 K, 63780 kPa | 1148 | –
293.35 K, 240 kPa | – | 46.83 mPa·s [middle of 4 runs]
293.35 K, 1160 kPa | – | 47.82 mPa·s
293.35 K, 1200 kPa | – | 47.73 mPa·s
293.35 K, 1230 kPa | – | 47.49 mPa·s
293.35 K, 1240 kPa | – | 47.46 mPa·s and 47.21 mPa·s and 47.42 mPa·s
293.35 K, 2170 kPa | – | 48.09 mPa·s
293.35 K, 2200 kPa | – | 47.9 mPa·s
293.35 K, 2220 kPa | – | 47.44 mPa·s
293.35 K, 2270 kPa | – | 47.58 mPa·s
293.35 K, 5010 kPa | – | 49.43 mPa·s
293.35 K, 5030 kPa | – | 49.23 mPa·s
293.35 K, 5040 kPa | – | 49.42 mPa·s
293.35 K, 10520 kPa | – | 51.72 mPa·s
293.35 K, 10530 kPa | – | 51.62 mPa·s
293.35 K, 10540 kPa | – | 51.26 mPa·s
293.35 K, 10620 kPa | – | 51.34 mPa·s
293.35 K, 10630 kPa | – | 51.5 mPa·s
293.35 K, 20180 kPa | – | 56.36 mPa·s
293.35 K, 20210 kPa | – | 56.39 mPa·s and 56.29 mPa·s and 56.71 mPa·s
293.35 K, 29650 kPa | – | 61.22 mPa·s
293.35 K, 29660 kPa | – | 61.45 mPa·s
293.35 K, 62400 kPa | – | 81.01 mPa·s
293.35 K, 62810 kPa | – | 81.71 mPa·s
293.35 K, 63230 kPa | – | 82.04 mPa·s
303 K, 190 kPa | – | 28.88 mPa·s [middle of 5 runs]
303 K, 330 kPa | – | 28.5 mPa·s and 29.08 mPa·s
303 K, 340 kPa | – | 29.02 mPa·s
303 K, 1210 kPa | – | 29.06 mPa·s
303 K, 1220 kPa | – | 29.35 mPa·s and 29.62 mPa·s
303 K, 2000 kPa | – | 29.4 mPa·s
303 K, 2020 kPa | – | 29.29 mPa·s
303 K, 2030 kPa | – | 29.32 mPa·s
303 K, 2100 kPa | – | 29.31 mPa·s
303 K, 2150 kPa | – | 29.15 mPa·s
303 K, 5250 kPa | – | 30.07 mPa·s
303 K, 5270 kPa | – | 30.07 mPa·s
303 K, 5280 kPa | – | 30.31 mPa·s
303 K, 10160 kPa | – | 31.63 mPa·s
303 K, 10170 kPa | – | 31.41 mPa·s
303 K, 10190 kPa | – | 31.65 mPa·s
303 K, 10210 kPa | – | 31.52 mPa·s
303 K, 10220 kPa | – | 31.49 mPa·s and 31.52 mPa·s
303 K, 20290 kPa | – | 34.2 mPa·s
303 K, 20300 kPa | – | 34.25 mPa·s
303 K, 20320 kPa | – | 34.32 mPa·s
303 K, 20330 kPa | – | 34.25 mPa·s and 34.3 mPa·s
303 K, 30260 kPa | – | 37.03 mPa·s and 37.15 mPa·s and 37.36 mPa·s
303 K, 30270 kPa | – | 37 mPa·s
303 K, 50510 kPa | – | 43.39 mPa·s
303 K, 50590 kPa | – | 43.57 mPa·s
303 K, 50660 kPa | – | 43.63 mPa·s
303 K, 64010 kPa | – | 47.91 mPa·s
